Source: patent US20260034065A1, “EXTENDED RELEASE PHARMACEUTICAL FORMULATION” (Douglas Pharmaceuticals Ltd., priority 2020, published 2026)

How the values were obtained:
[1] = subcutaneous dosing, unpublished data
[2] = Study ZPS-603 Cohort 4: mood ratings (HAMA, FQ, MADRS) in patients with TRD/TRA; assay type: in vivo, human; conditions: study 603 cohort 4 participants (FIG. 7)
Experimental: The objective of Cohort 4 was to evaluate efficacy, safety, PK and PD of an extended release ketamine oral formulation in patients with treatment-resistant depression and/or treatment-resistant anxiety (TRD/TRA). […] The design was an open label multiple ascending dose study. The initial dose was 60 mg, and could be escalated by an additional 60 mg 12 hourly, based on assessment of mood symptoms, to a maximum dose of 240 mg, with a total of 7 doses given 12 hourly between 0 and 72 hours. Endpoints included safety, tolerability, ketamine and norketamine PK, and PD (mood ratings including the Fear Questionnaire (FQ; Marks 1979), HAMA and MADRS, and dissociative symptom rating scale scores).
Anxiety Rating Scales: HAMA and FQ: Individual and group mean HAMA and FQ scores by timepoint are shown in FIG. 6 (6A: HAMA; 6B: FQ) There was a consistent trend for both scores to decrease over time, most noticeably in patients with higher baseline scores. […] All seven participants were assessed to be treatment responders (>50% reduction) based on changes in
There was a consistent trend for scores to decrease over time, most noticeably in patients with higher baseline scores. All seven participants were assessed to be treatment responders (>50% reduction) based on change in MADRS scores. […]

[3] = injected by any route of administration, e.g. Loo 2016; cited from earlier work

CNC1(c2ccccc2Cl)CCCCC1=O (stereo not drawn) [Ketamine solution, 2-(2-chlorophenyl)-2-(methylamino) cyclohexan-1-one]
Mean Tmax-ketamine [1]: 38.4 min
onset of improvement of anxiety symptoms [2]: 1 to 2 h
duration of marked dissociative symptoms after dosing [3]: up to 60 minutes
